Measurements from publication PMC7413254 (Nature Communications, 2020).

Columns and labels:
Format in all cases: cell-based
PfCRT^Dd2 [1] = target: T1, PfCRT^Dd2 (Plasmodium falciparum, UniProt Q9N623, A220S/I356T/K76T/M74I/N326S/N75E/Q271E/R371I); assay: [3H]CQ uptake into Xenopus oocytes, cis-inhibition by unlabelled solute; conditions: PfCRTDd2 oocytes, background [3H]CQ accumulation subtracted, normalised to oocyte type control
From the text: (§1) The orientation of PfCRT in the parasite’s DV membrane, and also in the oocyte plasma membrane, is such that its N- and C-termini extend into the cytosol. The oocytes were suspended in a reaction buffer adjusted to pH 5.5 to mimic the pH of the DV lumen[1],[2]. In this scenario, the transport of a substrate via PfCRT from the acidic extracellular solution into the oocyte cytosol[15] is analogous to the parasite’s PfCRT-mediated efflux of a substrate from the acidic DV and into the cytosol. Unless specified otherwise, this is the direction in which substrate transport was measured in the oocyte assays.
(§2) Unless specified otherwise, the transport assays were conducted over 1.5 h at 27.5 °C and the reaction buffer was ND96 (96 mM NaCl, 2 mM KCl, 1 mM MgCl2, 1.8 mM CaCl2, 10 mM MES and 10 mM Tris-base) at pH 5.5.
(§3) Ten oocytes were washed twice with the relevant ND96 buffer. […] The assay was terminated by removing the reaction buffer and washing the oocytes with ice-cold ND96 buffer. The oocytes were lysed in 10% (w/v) sodium dodecyl sulfate (SDS) and the radioactivity accumulated within each oocyte was measured with a MicroBeta^2 microplate liquid scintillation analyser (PerkinElmer).
(§4) At least four independent experiments were performed (on different days and using oocytes from different frogs), and within each experiment measurements were made from ten oocytes per treatment.

PfCRT^Ecu1110 [2] = target: T2, PfCRT^Ecu1110 (Plasmodium falciparum, UniProt Q9N623, A220S/I356L/K76T/N326D); assay: as above; conditions: for PfCRT-mediated [3H]CQ transport, cis-inhibition (% PfCRTEcu1110 control): PfCRTEcu1110 oocytes, background [3H]CQ accumulation subtracted, normalised to oocyte type control; for [3H]CQ transport (% PfCRTEcu1110 control), cis-inhibition, PfCRTEcu1110: PfCRT-mediated component (background subtracted), sheet title says normalised to PfCRTDd2 control, mean ± SEM, SEM
From the text: as §1, §2, §3, §4

PfCRT^3D7 = PfCRT^3D7 (Plasmodium falciparum, UniProt Q8IBZ9); assay: cell-based; conditions: PfCRT3D7 oocytes, normalised to oocyte type control
Experimental: as §2
(§5) The intracellular concentrations were calculated using previous estimates of the volume of stage V–VI oocytes (~400 nL[60]). […] The oocytes were injected with VF-6 suspended in 25 nL ND96 buffer adjusted to pH 5.0, 5.5, 6.0 or 7.0, which corresponded to the injection of 2.5–250 fmol of H^+. The Na^+-dependence of the trans-stimulatory effect of VF-6 was assessed by injecting the oocytes with VF-6 suspended in ND96 buffer (pH 5.5) or a Na^+-free version of this buffer (the Na^+ was replaced with choline).
as §4

PfCRT^Dd2 [3] = target: T1, PfCRT^Dd2; assay: cell-based; conditions: for PfCRT-mediated [3H]CQ transport, trans-stimulation (% PfCRTDd2 control): PfCRTDd2 oocytes, normalised to oocyte type control; for [3H]CQ transport (% PfCRTDd2 control), trans-stimulation, PfCRTDd2: PfCRT-mediated component (background subtracted), mean ± SEM, SEM
Experimental: as §2, §5, §4

PfCRT^Ecu1110 [4] = target: T2, PfCRT^Ecu1110; assay: cell-based; conditions: for PfCRT-mediated [3H]CQ transport, trans-stimulation (% PfCRTEcu1110 control): PfCRTEcu1110 oocytes, normalised to oocyte type control; for [3H]CQ transport (% PfCRTDd2 control), trans-stimulation, PfCRTEcu1110: PfCRT-mediated component (background subtracted), sheet title says normalised to PfCRTDd2 control, mean ± SEM, SEM
Experimental: as §2, §5, §4

[5] = [test solute]i = 5 mM (intracellular)
[6] = [test solute]i = 45 mM (intracellular; 30 mM for some solutes due to solubility)
[7] = [test solute]i = 5 mM (injected)
[8] = [test solute]i = 45 mM (30 mM for some solutes due to solubility)

T1 sequence (Q9N623 whole entry A220S/I356T/K76T/M74I/N326S/N75E/Q271E/R371I): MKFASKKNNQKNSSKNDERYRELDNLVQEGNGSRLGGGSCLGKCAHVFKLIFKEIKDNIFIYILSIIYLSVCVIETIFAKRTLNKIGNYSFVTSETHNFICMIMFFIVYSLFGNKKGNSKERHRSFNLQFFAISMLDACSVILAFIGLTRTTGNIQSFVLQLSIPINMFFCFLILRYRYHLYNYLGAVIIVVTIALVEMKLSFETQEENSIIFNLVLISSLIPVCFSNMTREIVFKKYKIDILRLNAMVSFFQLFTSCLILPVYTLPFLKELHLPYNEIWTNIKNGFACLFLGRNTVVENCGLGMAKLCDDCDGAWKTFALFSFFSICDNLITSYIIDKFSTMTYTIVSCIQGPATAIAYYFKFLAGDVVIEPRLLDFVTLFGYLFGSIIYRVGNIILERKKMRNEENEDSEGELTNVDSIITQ
T2 sequence (Q9N623 whole entry A220S/I356L/K76T/N326D): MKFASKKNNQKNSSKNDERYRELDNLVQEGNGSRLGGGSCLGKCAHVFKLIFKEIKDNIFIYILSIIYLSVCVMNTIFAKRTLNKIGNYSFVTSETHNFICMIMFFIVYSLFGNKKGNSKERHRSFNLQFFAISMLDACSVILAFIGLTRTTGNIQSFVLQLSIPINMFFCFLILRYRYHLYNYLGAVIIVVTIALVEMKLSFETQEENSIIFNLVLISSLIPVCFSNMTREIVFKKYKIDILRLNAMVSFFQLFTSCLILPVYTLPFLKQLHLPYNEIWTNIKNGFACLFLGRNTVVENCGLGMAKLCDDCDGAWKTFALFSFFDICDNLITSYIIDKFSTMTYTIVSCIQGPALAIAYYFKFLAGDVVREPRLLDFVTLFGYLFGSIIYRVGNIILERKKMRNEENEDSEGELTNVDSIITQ
PfCRT^3D7, sequence (Q8IBZ9 59-398): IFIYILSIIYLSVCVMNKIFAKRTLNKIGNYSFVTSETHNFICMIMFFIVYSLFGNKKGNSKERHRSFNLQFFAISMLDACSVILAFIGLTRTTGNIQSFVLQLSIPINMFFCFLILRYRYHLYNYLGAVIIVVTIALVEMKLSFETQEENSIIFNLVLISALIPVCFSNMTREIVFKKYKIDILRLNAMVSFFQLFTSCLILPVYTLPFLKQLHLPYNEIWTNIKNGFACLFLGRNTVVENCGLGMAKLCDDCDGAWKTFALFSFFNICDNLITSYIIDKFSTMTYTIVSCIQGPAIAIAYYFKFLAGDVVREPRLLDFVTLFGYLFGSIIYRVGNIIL

Row | Substance | PfCRT-mediated [3H]CQ transport, cis-inhibition (% PfCRTDd2 control) (PfCRT^Dd2 [1]; [test solute] = 0.5 mM) | PfCRT-mediated [3H]CQ transport, cis-inhibition (% PfCRTDd2 control) (PfCRT^Dd2 [1]; [test solute] = 1 mM) | PfCRT-mediated [3H]CQ transport, cis-inhibition (% PfCRTDd2 control) (PfCRT^Dd2 [1]; [test solute] = 2 mM) | PfCRT-mediated [3H]CQ transport, cis-inhibition (% PfCRTEcu1110 control) (PfCRT^Ecu1110 [2]; [test solute] = 0.5 mM) | PfCRT-mediated [3H]CQ transport, cis-inhibition (% PfCRTEcu1110 control) (PfCRT^Ecu1110 [2]; [test solute] = 1 mM) | PfCRT-mediated [3H]CQ transport, cis-inhibition (% PfCRTEcu1110 control) (PfCRT^Ecu1110 [2]; [test solute] = 2 mM) | [3H]CQ transport (% PfCRTEcu1110 control), cis-inhibition, PfCRTEcu1110 (PfCRT^Ecu1110 [2]; [test solute] = 0.5 mM) | [3H]CQ transport (% PfCRTEcu1110 control), cis-inhibition, PfCRTEcu1110 (PfCRT^Ecu1110 [2]; [test solute] = 2 mM) | PfCRT-mediated [3H]CQ transport, trans-stimulation (% PfCRT3D7 control) (PfCRT^3D7; [5]) | PfCRT-mediated [3H]CQ transport, trans-stimulation (% PfCRT3D7 control) (PfCRT^3D7; [6]) | PfCRT-mediated [3H]CQ transport, trans-stimulation (% PfCRTDd2 control) (PfCRT^Dd2 [3]; [5]) | PfCRT-mediated [3H]CQ transport, trans-stimulation (% PfCRTDd2 control) (PfCRT^Dd2 [3]; [6]) | [3H]CQ transport (% PfCRTDd2 control), trans-stimulation, PfCRTDd2 (PfCRT^Dd2 [3]; [7]) | [3H]CQ transport (% PfCRTDd2 control), trans-stimulation, PfCRTDd2 (PfCRT^Dd2 [3]; [8]) | PfCRT-mediated [3H]CQ transport, trans-stimulation (% PfCRTEcu1110 control) (PfCRT^Ecu1110 [4]; [5]) | PfCRT-mediated [3H]CQ transport, trans-stimulation (% PfCRTEcu1110 control) (PfCRT^Ecu1110 [4]; [6]) | [3H]CQ transport (% PfCRTDd2 control), trans-stimulation, PfCRTEcu1110 (PfCRT^Ecu1110 [4]; [7]) | [3H]CQ transport (% PfCRTDd2 control), trans-stimulation, PfCRTEcu1110 (PfCRT^Ecu1110 [4]; [8]) | [3H]CQ transport (% PfCRTEcu1110 control), cis-inhibition, PfCRTEcu1110 (PfCRT^Ecu1110 [2]; [test solute] = 1 mM)
1 | DPENF [DEF-5] | 29 ± 2.1 % PfCRTDd2 control | 20 ± 1.1 % PfCRTDd2 control | 11 ± 0.1 % PfCRTDd2 control | 41 ± 2.7 % PfCRTEcu1110 control | 28 ± 1.0 % PfCRTEcu1110 control | 18 ± 0.3 % PfCRTEcu1110 control | 13 ± 0.1 % PfCRTEcu1110 control | 6.0 ± 0.3 % PfCRTEcu1110 control | 129 ± 3.2 % PfCRT3D7 control | 162 ± 4.2 % PfCRT3D7 control | 100 ± 2.1 % PfCRTDd2 control | 112 ± 0.5 % PfCRTDd2 control | 100 ± 2.1 % PfCRTDd2 control | 112 ± 0.5 % PfCRTDd2 control | 122 ± 1.9 % PfCRTEcu1110 control | 137 ± 2.5 % PfCRTEcu1110 control | 37 ± 1.5 % PfCRTEcu1110 control | 41 ± 2.3 % PfCRTEcu1110 control | 
2 | DPENFR [DR-6] | 38 ± 0.3 % PfCRTDd2 control | 30 ± 1.0 % PfCRTDd2 control | 17 ± 0.3 % PfCRTDd2 control | 38 ± 1.3 % PfCRTEcu1110 control | 35 ± 4.2 % PfCRTEcu1110 control | 27 ± 0.1 % PfCRTEcu1110 control |  | 9.0 ± 0.02 % PfCRTEcu1110 control | 137 ± 4.6 % PfCRT3D7 control | 188 ± 5.7 % PfCRT3D7 control | 100 ± 3.7 % PfCRTDd2 control | 112 ± 4.3 % PfCRTDd2 control | 100 ± 3.7 % PfCRTDd2 control | 112 ± 4.3 % PfCRTDd2 control | 118 ± 0.6 % PfCRTEcu1110 control | 127 ± 4.2 % PfCRTEcu1110 control | 36 ± 1.4 % PfCRTEcu1110 control | 38 ± 1.5 % PfCRTEcu1110 control | 11 ± 0.1 % PfCRTEcu1110 control
3 | DTSLKPIS [DS-8] | 40 ± 2.2 % PfCRTDd2 control | 28 ± 0.6 % PfCRTDd2 control | 19 ± 0.3 % PfCRTDd2 control | 57 ± 2.1 % PfCRTEcu1110 control | 42 ± 3.1 % PfCRTEcu1110 control | 28 ± 1.3 % PfCRTEcu1110 control |  |  | 135 ± 3.7 % PfCRT3D7 control | 180 ± 3.4 % PfCRT3D7 control | 95 ± 3.1 % PfCRTDd2 control | 112 ± 1.2 % PfCRTDd2 control |  |  | 127 ± 2.8 % PfCRTEcu1110 control | 140 ± 4.1 % PfCRTEcu1110 control |  |  | 
4 | EFTPPVQ [EQ-7] | 40 ± 1.1 % PfCRTDd2 control | 28 ± 0.2 % PfCRTDd2 control | 17 ± 1.1 % PfCRTDd2 control | 44 ± 1.4 % PfCRTEcu1110 control | 32 ± 2.4 % PfCRTEcu1110 control | 22 ± 2.9 % PfCRTEcu1110 control | 14 ± 0.6 % PfCRTEcu1110 control | 8.0 ± 0.03 % PfCRTEcu1110 control | 136 ± 4.2 % PfCRT3D7 control | 188 ± 4.7 % PfCRT3D7 control | 96 ± 3.3 % PfCRTDd2 control | 112 ± 3.2 % PfCRTDd2 control | 96 ± 3.3 % PfCRTDd2 control | 112 ± 3.2 % PfCRTDd2 control | 129 ± 4.5 % PfCRTEcu1110 control | 136 ± 2.7 % PfCRTEcu1110 control | 39 ± 1.5 % PfCRTEcu1110 control | 41 ± 1.8 % PfCRTEcu1110 control | 10 ± 0.5 % PfCRTEcu1110 control
5 | EFTPPVQA [EA-8] |  | 27 ± 0.9 % PfCRTDd2 control | 18 ± 0.2 % PfCRTDd2 control | 58 ± 1.1 % PfCRTEcu1110 control | 43 ± 1.6 % PfCRTEcu1110 control | 29 ± 2.5 % PfCRTEcu1110 control |  |  | 131 ± 2.9 % PfCRT3D7 control | 174 ± 3.3 % PfCRT3D7 control | 97 ± 2.2 % PfCRTDd2 control | 98 ± 1.9 % PfCRTDd2 control |  |  | 127 ± 3.1 % PfCRTEcu1110 control | 136 ± 4.1 % PfCRTEcu1110 control |  |  | 
